In assay [1] the target is T1, B1R receptor of the rat (Rattus norvegicus, UniProt P97583).
T1 construct: host or cells: CHO K1 cells (Chinese hamster ovary), stably transfected
T1 sequence (P97583 1-337): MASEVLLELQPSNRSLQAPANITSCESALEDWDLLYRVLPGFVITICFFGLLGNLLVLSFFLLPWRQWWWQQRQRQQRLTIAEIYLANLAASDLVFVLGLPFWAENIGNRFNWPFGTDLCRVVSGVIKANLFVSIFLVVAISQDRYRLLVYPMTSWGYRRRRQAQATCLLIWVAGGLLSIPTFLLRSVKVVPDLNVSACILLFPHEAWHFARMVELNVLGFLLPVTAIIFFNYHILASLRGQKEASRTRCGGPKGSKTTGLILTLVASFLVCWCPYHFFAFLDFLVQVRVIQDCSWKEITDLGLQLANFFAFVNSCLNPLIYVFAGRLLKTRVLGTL
The assay can be described thus: Functional study on the bradykinin receptor 1 (B1R), FLIPR Ca2+ assay, rB1R cells. As to conditions: CHO-K1, test substance 10 μM, agonist Des-Arg9-bradykinin 100 nM, % inhibition compared with the maximum achievable inhibition, read-out: B1R Antagonism, rat [10 μM] % Inhibition. It is filed as cell-based. In outline: (§1)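 FLIPR Ca2+ read-out (Fluo-4, peak fluorescence) in stably transfected CHO K1 cells. Compounds at 10 μM, then 10 min later agonist challenge: human B1R with Lys-Des-Arg9-bradykinin 0.5 nM, rat B1R with Des-Arg9-bradykinin 100 nM; reported as % activation or % of maximal inhibition.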

Assay [2] concerns the target T2, human B1R receptor (Homo sapiens, UniProt P46663).
T2 construct: host or cells: CHO K1 cells (Chinese hamster ovary), stably transfected
T2 sequence (P46663 1-353): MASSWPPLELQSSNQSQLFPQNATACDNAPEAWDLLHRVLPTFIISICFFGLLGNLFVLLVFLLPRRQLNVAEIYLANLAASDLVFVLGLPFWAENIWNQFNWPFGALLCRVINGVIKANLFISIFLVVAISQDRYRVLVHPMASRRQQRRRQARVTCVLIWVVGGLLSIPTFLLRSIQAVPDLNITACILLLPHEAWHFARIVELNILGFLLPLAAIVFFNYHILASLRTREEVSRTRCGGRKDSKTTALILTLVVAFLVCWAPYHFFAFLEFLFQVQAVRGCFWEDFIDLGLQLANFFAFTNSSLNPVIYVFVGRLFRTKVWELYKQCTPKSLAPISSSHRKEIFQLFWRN
The assay can be described thus: Functional study on the bradykinin receptor 1 (B1R), FLIPR Ca2+ assay, hB1R cells. It is filed as cell-based. As to conditions: CHO-K1, test substance 10 μM, agonist Lys-Des-Arg9-bradykinin 0.5 nM, % inhibition compared with the maximum achievable inhibition, read-out: B1R Antagonism, human [10 μM] % Inhibition. In outline:
as §1

The source of these data is patent US8435978B2, “Substituted sulfonamide compounds” (Gruenenthal GmbH, priority 2006, dated 2013).

For the compound `O=C(COCC1CCCCN1S(=O)(=O)c1c(Cl)cccc1Cl)N1CCN(c2ccc(C(F)(F)F)cn2)CC1` (stereo not drawn) [Example 484, 2-((1-(2,6-dichlorophenylsulfonyl)piperidin-2-yl)methoxy)-1-(4-(5-(trifluoromethyl)pyridin-2-yl)piperazin-1-yl)ethanone], the figures for the inhibition at 10 µM in assay [1] and in assay [2] were 101% and 75.6%, respectively.

Consider `COc1cc(C)c(S(=O)(=O)N2CCCC2COCC(=O)N2CCC(c3cccnc3)C2)c(C)c1` (stereo not drawn) [Example 272, 2-((1-(4-methoxy-2,6-dimethylphenylsulfonyl)pyrrolidin-2-yl)methoxy)-1-(3-(pyridin-3-yl)pyrrolidin-1-yl)ethanone], for which the figures for the inhibition at 10 µM in assay [1] and in assay [2] were 84.6% and 97.1%, respectively.

`COc1cc(C)c(S(=O)(=O)N2CCCC2COCC(=O)NC(CN2CCCC2)c2ccccc2)c(C)c1` (stereo not drawn) [Example 505, 2-((1-(4-methoxy-2,6-dimethylphenylsulfonyl)pyrrolidin-2-yl)methoxy)-N-(1-phenyl-2-(pyrrolidin-1-yl)ethyl)acetamide]: the inhibition (in general, the drop in the measured response relative to a control, in per cent) at 10 µM in assay [1] is 101%; in assay [2] it was 74%.

Turning to `COc1cccc(-c2cc(NC(=O)COCC3CCCCN3S(=O)(=O)c3c(C)cc(OC)cc3C)n[nH]2)c1` (stereo not drawn) [Example 541, 2-((1-(4-methoxy-2,6-dimethylphenylsulfonyl)piperidin-2-yl)methoxy)-N-(5-(3-methoxyphenyl)-1H-pyrazol-3-yl)acetamide], the results for the inhibition at 10 µM in assay [1] and in assay [2] were 108% and 103%, respectively.

In the case of `Cc1ccc(C)n1CCN1CCN(C(=O)COCC2CCCN2S(=O)(=O)c2c(Cl)cccc2Cl)CC1` (stereo not drawn) [Example 287, 2-((1-(2,6-dichlorophenylsulfonyl)pyrrolidin-2-yl)methoxy)-1-(4-(2-(2,5-dimethyl-1H-pyrrol-1-yl)ethyl)piperazin-1-yl)ethanone], the inhibition at 10 µM in assay [1] was 89.2%; in assay [2], 101%.

On to `COc1cc(C)c(S(=O)(=O)N2CCCCC2CCOCC(=O)N2CCN(C3CCN(C)CC3)CC2)c(C)c1` (stereo not drawn) [Example 164, 2-(2-(1-(4-methoxy-2,6-dimethylphenylsulfonyl)piperidin-2-yl)ethoxy)-1-(4-(1-methylpiperidin-4-yl)piperazin-1-yl)ethanone], for which the figures for the inhibition at 10 µM in assay [1] and in assay [2] were 101% and 99.6%, respectively.

`COc1cc(C)c(S(=O)(=O)N2CCCCC2COCC(=O)Nc2ccc(N3CCOCC3)nc2)c(C)c1` (stereo not drawn) [Example 396, 2-((1-(4-methoxy-2,6-dimethylphenylsulfonyl)piperidin-2-yl)methoxy)-N-(6-morpholinopyridin-3-yl)acetamide]: the values for the inhibition at 10 µM in assay [1] and in assay [2] were 80.6% and 24.7%, respectively.

For `COc1cc(C)c(S(=O)(=O)N2CCCCC2COCC(=O)N2CCC(N3CCn4ncnc4C3)CC2)c(C)c1` (stereo not drawn) [Example 145, 1-(4-(5,6-dihydro-[1,2,4]triazolo[1,5-a]pyrazin-7(8H)-yl)piperidin-1-yl)-2-((1-(4-methoxy-2,6-dimethylphenylsulfonyl)piperidin-2-yl)methoxy)ethanone], the inhibition at 10 µM came out at 98.6% in assay [1] and 99.4% in assay [2].

For `Cc1cc(C)c(S(=O)(=O)N2CCCCC2COCC(=O)N2CCC(N3CCCC3)CC2)c(C)c1` (stereo not drawn) [Example 19, 2-((1-(mesitylsulfonyl)piperidin-2-yl)methoxy)-1-(4-(pyrrolidin-1-yl)piperidin-1-yl)-ethanone], the values for the inhibition at 10 µM in assay [1] and in assay [2] were 98.9% and 95%, respectively.

Consider `CN1CCC(N2CCN(C(=O)COCC3CCCCN3S(=O)(=O)c3ccc(Cl)cc3Cl)CC2)CC1` (stereo not drawn) [Example 120, 2-((1-(2,4-dichlorophenylsulfonyl)piperidin-2-yl)methoxy)-1-(4-(1-methylpiperidin-4-yl)piperazin-1-yl)ethanone], for which the inhibition at 10 µM in assay [1] and in assay [2] was 103% each time.

Take `Cc1ccc(N2CCN(C(=O)COCC3CCCN3S(=O)(=O)c3c(Cl)cccc3Cl)CC2)cc1C` (stereo not drawn) [Example 355, 2-((1-(2,6-dichlorophenylsulfonyl)pyrrolidin-2-yl)methoxy)-1-(4-(3,4-dimethylphenyl)piperazin-1-yl)ethanone]: the inhibition at 10 µM in assay [1] was found to be 102%; in assay [2], 83.4%.

As for `CN1CCC(N2CCN(C(=O)COCC3CCCCN3S(=O)(=O)c3cccc4ccccc34)CC2)CC1` (stereo not drawn) [Example 110, 1-(4-(1-methylpiperidin-4-yl)piperazin-1-yl)-2-((1-(naphthalen-1-ylsulfonyl)piperidin-2-yl)methoxy)ethanone], the inhibition at 10 µM in assay [1] and in assay [2] was 102% in each case.

With `COc1cc(C)c(S(=O)(=O)N2CCCCC2COCC(=O)N2CCC(N3CCC(F)CC3)CC2)c(C)c1` (stereo not drawn) [Example 130, 1-(4-fluoro-1,4′-bipiperidin-1′-yl)-2-((1-(4-methoxy-2,6-dimethylphenylsulfonyl)piperidin-2-yl)methoxy)ethanone], the results for the inhibition at 10 µM in assay [1] and in assay [2] were 96.3% and 103%, respectively.

For the compound `Cc1cc(C)nc(CC2CCCCN2C(=O)COCC2Cc3ccccc3CN2S(=O)(=O)c2c(C)cc(C)cc2C)c1` (stereo not drawn) [Example 223, 1-(2-((4,6-dimethylpyridin-2-yl)methyl)piperidin-1-yl)-2-((2-(mesitylsulfonyl)-1,2,3,4-tetrahydroisoquinolin-3-yl)methoxy)ethanone], the inhibition at 10 µM in assay [1] came to 86.4%; in assay [2] it was 26.2%.

Consider `COc1cc(C)c(S(=O)(=O)N2CCCCC2COCC(=O)N2CCN(Cc3nc(-c4ccccc4)[nH]c3Cl)CC2)c(C)c1` (stereo not drawn) [Example 197, 1-(4-((5-chloro-2-phenyl-1H-imidazol-4-yl)methyl)piperazin-1-yl)-2-((1-(4-methoxy-2,6-dimethylphenylsulfonyl)piperidin-2-yl)methoxy)ethanone], for which the inhibition at 10 µM in assay [1] was found to be 100%; in assay [2], 104%.

In the case of `COc1cc(C)c(S(=O)(=O)N2CCCCC2COCC(=O)N2CCN(CCN(C(C)C)C(C)C)CC2)c(C)c1` (stereo not drawn) [Example 341, 1-(4-(2-(diisopropylamino)ethyl)piperazin-1-yl)-2-((1-(4-methoxy-2,6-dimethylphenylsulfonyl)piperidin-2-yl)methoxy)ethanone], the figures for the inhibition at 10 µM in assay [1] and in assay [2] were 102% and 105%, respectively.

In the case of `COc1cc(C)c(S(=O)(=O)N2CCCCC2COCC(=O)N2CCC(N3CCc4cnccc4C3)CC2)c(C)c1` (stereo not drawn) [Example 100, 1-(4-(3,4-dihydro-2,6-naphthyridin-2(1H)-yl)piperidin-1-yl)-2-((1-(4-methoxy-2,6-dimethylphenylsulfonyl)piperidin-2-yl)methoxy)ethanone], the figures for the inhibition at 10 µM in assay [1] and in assay [2] were 102% and 104%, respectively.

For the compound `COc1cc(C)c(S(=O)(=O)N2CCCCC2COCC(=O)N2CCCN(C)CC2)c(C)c1` (stereo not drawn) [Example 375, 2-((1-(4-methoxy-2,6-dimethylphenylsulfonyl)piperidin-2-yl)methoxy)-1-(4-methyl-1,4-diazepan-1-yl)ethanone], the inhibition at 10 µM in assay [1] amounted to 99.8%; in assay [2], 98.7%.
